Assay: Relaxation dynamics of hyperpolarized [1-13C]pyruvate (build-up time Tb, T1)
Type: physicochemical
Source text: In addition, the relaxation dynamics of the [1-^13C]pyruvate were also studied.
In addition, relaxation dynamics at earth field and 1.8 T are about the same as a non-fluorinated SABRE catalyst T1=28.9±1.6 s and 66.5±7 s, respectively.
In addition, relaxation dynamics at earth field and 1.8 T are about the same as a non-fluorinated SABRE catalyst T1=9.0±1.9 s and 16.0±1.4 s, respectively.

C[13C](=O)C(=O)O [[1-^13C]pyruvate, Sodium [1-^13C]-pyruvate]
total P13C (bound+free) build-up time Tb (NFBME / deuterated methanol mixture, catalyst of Example 4): 3.0 ± 0.8 s
total P13C (bound+free) build-up time Tb (methanol, catalyst of Example 4, DMSO co-ligand): 6.6 ± 3.0 s

— patent US20250244419A1, “INFUSION DEVICE FOR THE PREPARATION AND DELIVERY OF MRI PROBES” (The United States of America, as represented by the …, priority 2022, published 2025)
